{
  "source": "patent US10188629B2",
  "about": "“Prodrug of green tea epigallocatechin-3-gallate (pro-EGCG) for use in the treatment of endometriosis” (The Hong Kong Polytechnic University, priority 2012, dated 2019)",
  "format_in_all_cases": "in vivo, mice",
  "key": {"[1]": {"system": "endometriotic lesions (experimental endometriosis)", "test": "Growth of luminescent endometriotic lesions monitored weekly by IVIS bioluminescence imaging", "excerpt": "Based on our previous study, an immune-compromised mouse model of experimental endometriosis was created by subcutaneous transplantation of human or mouse tissues to assess the anti-angiogenic effects and mechanisms of green tea catechin (Xu H, et al. Hum Reprod 2009; 24:608-18; Xu H, et al. Fertil Steril 2011; 96:1021-8).\n(§1) In this study, endometrial tissues from eight-week-old female CMV-Luc mice (n=15) were acquired for transplantation into nonluminescent NOD-SCID mice (n=32). The mouse endometrium was obtained during the proliferating estrous stage, and biopsies 2 mm in diameter were obtained with a sterile dermal biopsy punch (Miltex, NY). The biopsies were immediately washed in prewarmed, phenol-red-free DMEM/F-12 medium (Sigma) to remove residual blood and mucus, and the samples were maintained in serum-free DMEM/F-12 medium before transplantation (Bruner-Tran K L, et al. J Clin Endocrinol Metab 2009; 94:2489-94). Cultured endometrial biopsies were randomly allocated for transplantation.\n(§2) Five mouse endometrial biopsies per treatment group were implanted into a single subcutaneous pocket created is the abdominal wall of the mice along the ventral midline immediately below the umbilicus. All of the surgical procedures were performed under general anesthesia with isoflurane (Baxter, IL), and the mice were monitored until they fully recovered.\nDevelopment and angiogenesis of the experimental endometriosis were monitored using various in vivo imaging systems. During the intervention, growth of the endometriotic lesions (n=8 per group) was monitored each week by measuring the bioluminescence of the subcutaneous luciferase-positive implants using a non-invasive IVIS 200 live animal imaging system (Xenogen) as previously described (Song C, et al. Hum Gene Ther, 2011; 22:439-49). A total of 150 mg/kg of luciferin was injected intraperitoneally […] 10 mins prior to imaging. An image from each animal was captured at bin size 4 in triplicate, and the bioluminescence signal intensities were averaged for comparison."}, "[2]": {"system": "endometriotic lesions (experimental endometriosis)", "test": "Lesion size, weight and histology at end of intervention", "conditions": "after 4 weeks i.p. once per day", "excerpt": "as §1, §2\nAt the end of intervention, size of the endometriotic lesions was determined as the longest length and perpendicular width according to a venire caliper and was calculated as 0.52×width^2×length in mm^3. The endometrial implants, together with subcutaneous and muscle layers, were removed from the abdomen wall for detailed histological examination and specific staining analysis.\n(§3) Paraffin sections (n=4 per group) were prepared for standard hematoxylin and eosin (H&E) staining, angiogenesis immunostaining and TUNEL staining as previously described (Xu H, et al. Hum Reprod 2009; 24:608-18.). Immunohistochemistry staining of in situ angiogenesis was performed by the immunoperoxidase method using a MACH 3 HRP Polymer Kit (Biocare Medical, Concord), and counterstained using methyl green or blue solution."}, "[3]": {"system": "microvessels in the endometriotic lesions", "test": "Angiogenesis of endometriotic lesions by Cellvizio, microCT and CD31/αSMA immunostaining", "conditions": "after 4 weeks", "description": "(§4) At the end of intervention, functional angiogenesis of the endometriotic lesions (n=8 per group) was monitored by measuring the flow of fluorescence dye in the new microvessels developed in the implants using a Cellvizio® LAB LSU-488 system with a ProFlex Microprobe S1500 (Mauna Kea Technologies, Paris) as previously described (Xu H, et al. Fertil Steril 2011; 96:1021-8.). A total of 10 mg/ml of FITC-Dextran was injected intravenously into each mouse prior to imaging. Total vessel length (μm) and area (μm^2) and functional capillary length (μm^−1) and area density were measured using Cellvizio® LAB Vessel Detection software, and averaged from 4 perpendicular regions of the lesions in replicates. At the same time, apoptotic cells in the lesions were captured by Cellvizio-LAB 488 with a ProFlex MiniO/100 microprobe using Cellvizio® LAB I/C Viewer software (Mauna Kea Technologies). A total of 10 μl of 10 μM YO-PRO®-1 iodide in DSMO was injected into the lesion area.\nAfter live animal imaging, structural angiogenesis in the endometriotic lesions (n=4 per group) was further examined by detecting the Microfil in the new microvessels developed in the implants using a VivaCT 40 μCT system (Scanco Medical, Switzerland) as previously described (Sun M H, et al. J Orthop Res. 2012; 30:137-43.). The mice were sacrificed by cervical dislocation and where immediately perfused with 4% paraformaldehyde and Microfil MV-120 Blue. Three-dimensional microvessel architecture was constructed, and absolute and relative Microfil-filled microvessel volumes were determined using the built-in software.\nas §3\nAntibodies against mouse CD31 and alpha-smooth muscle actin (αSMA) (Abcam Inc., MA) were used to double fluorescence stain the microvessels developed in the endometriotic lesions, and CD34 (Abeam Inc.) was used to stain the microvessels in the ovaries and uterus. The samples without primary antibodies served as negative controls. The total number of positively stained new and old microvessels in the lesions was counted, respectively. The mean microvessel numbers and sizes were calculated from 5 separated sections from each animal within the treatment group and are presented as numbers per lesion and μm^2 per lesion, respectively."}, "[4]": {"system": "apoptotic cells in the endometriotic lesions", "test": "Apoptosis in endometriotic lesions by Cellvizio YO-PRO-1 imaging and TUNEL staining", "conditions": "after 4 weeks", "description": "as §4\nThe total number of apoptotic cells was counted and averaged from the 4 perpendicular regions of the lesions in replicates as described above. Both IVIS and Cellvizio imaging procedures were performed under general anesthesia with isoflurane (Baxter, Ill.), and the mice were observed until fully recovered.\nTUNEL labeling for in situ apoptotic cells was performed using an ApopTag Peroxidase In Situ Apoptosis Detection Kit (Temecula, Calif.) according to the manufacturer's instructions. The total numbers of TUNEL-positive stained cells were counted. The mean numbers of apoptotic cells were calculated from 5 separated sections from each animal within the treatment group and are presented as numbers per lesion as above. […] Each section was evaluated by both examiners, who were blinded to the experimental groups and results."}, "[5]": {"test": "Oxygen radical absorbance capacity (ORAC) in plasma and lesions", "excerpt": "(§5) Pharmacokinetics of EGCG and pro-EGCG in the animals were studied by measuring the corresponding EGCG and pro-EGCG concentrations (EGCG in the EGCG group, pro-EGCG in the pro-EGCG group) in plasma during the intervention and also in lesions at the end of intervention. EGCG and pro-EGCG were quantified by analytical methods as previously described (Lam W H, et al. Bioorg Med Chem. 2004; 510:69-93; Chu K O, et al. J Chromat B 2004; 810:187-95; Chu K O, et al. Anal Chim Acta 2004; 510:69-76). Anti-oxidative and anti-angiogenesis capacities of the samples were also studied by measuring oxygen radical absorbance capacity (ORAC) using a modified phycoerythrin fluorescence decay assay as previously described (Wang C C, et al. Clin Chem 2004; 50:952-4), and vascular endothelial growth factor (VEGF) concentrations were measured using a commercial ELISA kit (Uscn Life Science Inc., TX) according to the manufacturer's manual. Blood samples (n=8 per group) were collected from the tail vein once per week, and plasma was prepared by immediate centrifugation. Implants without subcutaneous and muscle layers (n=4 per group) were removed from the abdominal wall, and the endometriotic lesions were frozen. All of the samples were kept in −80° C. prior to analysis."}, "[6]": {"system": "vascular endothelial growth factor (VEGF)", "test": "VEGF concentrations in plasma and lesions by ELISA", "excerpt": "as §5"}, "[7]": {"conditions": "EGCG, pro-EGCG 50 mg/kg, vitamin E 20 mg/kg"}},
  "data": [
    {"substance": "vitamin E", "values": [
      {"measurement": "lesion bioluminescence intensity compared with saline group", "setting": "[1]; i.p. once per day, 4 weeks, EGCG, pro-EGCG 50 mg/kg, vitamin E 20 mg/kg", "result": "significantly lower than that of the saline group at the 3rd week"},
      {"measurement": "lesion growth (bioluminescence) at the 4th week compared with saline group", "setting": "[1]; vitamin E 20 mg/kg i.p. once per day, 4th week", "result": "returned to normal growth, as in the saline group"},
      {"measurement": "lesion size compared to control group", "setting": "[2]; [7]", "result": "did not significantly decrease"},
      {"measurement": "lesion weight compared to control group", "setting": "[2]; [7]", "result": "did not significantly decrease"},
      {"measurement": "development and histology of the endometriotic lesions", "setting": "[2]; microscopic examination", "result": "a large cyst-like endometrial gland structure was formed"},
      {"measurement": "functional capillary length, density and area in the lesions compared to saline group", "setting": "[3]; Cellvizio, FITC-Dextran", "result": "but not vitamin E, significantly inhibited"},
      {"measurement": "total vessel length in the lesions compared to saline group", "setting": "[3]; Cellvizio, FITC-Dextran", "result": "but not vitamin E, significantly inhibited"},
      {"measurement": "CD31-positively and αSMA-positively stained old microvessel numbers compared to saline group", "setting": "[3]; immunostaining", "result": "but not vitamin E, significantly inhibited"},
      {"measurement": "vessel volume and density in the lesions compared to saline group", "setting": "[3]; microCT, Microfil", "result": "but not vitamin E, significantly inhibited"},
      {"measurement": "total apoptotic cell numbers in the lesions compared to saline group", "setting": "[4]", "result": "but not vitamin E significantly increased"},
      {"measurement": "ORAC in endometriotic lesions compared to saline group", "setting": "[5]; lesions after intervention", "result": "significantly increased"},
      {"measurement": "ORAC in plasma compared to saline group", "setting": "[5]; plasma during intervention", "result": "significantly increased"},
      {"measurement": "VEGF concentrations in endometriotic lesions compared to saline group", "setting": "[6]; lesions after intervention", "result": "not significantly different from the saline group"},
      {"measurement": "VEGF concentrations in plasma compared to saline group", "setting": "[6]; plasma during intervention", "result": "not significantly different from the saline group"}
    ]}
  ]
}
